# Key:
# Human IL-17A [1] = molecular target: T1, Human IL-17A (Homo sapiens, UniProt Q16552); experiment: IL-17A enzyme-linked immunosorbent assay (competitive ELISA, IL-17A/IL-17Ra receptor-ligand binding); parameters: purchased Sino Biological Inc. 12047-H07B; conditions: human IL-17A coated plate, human IL-17Ra, read-out: IC50, inhibitory activity of compounds on human IL-17A
# T1 sequence (Q16552 20-155 limits assumed): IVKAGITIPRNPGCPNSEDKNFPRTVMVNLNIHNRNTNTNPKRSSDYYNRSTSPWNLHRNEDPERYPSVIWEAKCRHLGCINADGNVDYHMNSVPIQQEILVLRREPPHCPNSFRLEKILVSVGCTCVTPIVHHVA
# Outline: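 Competitive ELISA with plates coated with human IL-17A at 0.2 μg/ml, blocked with 5% skim milk. Compound pre-incubated with IL-17A 10 min at 25 °C, then 16 nM IL-17Ra stock added for 30 min. Bound receptor detected by anti-Fc HRP/TMB, A450. IC50 from variable-slope fit of blank-corrected residual activity.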
# Human IL-17A [2] = molecular target: T1, Human IL-17A; experiment: Inhibition of human IL-17A protein-induced GROα/CXCL1 production in HT-29 cells; format: cell-based; parameters: purchased R&D 317-ILB; host or cells: added exogenously to HT-29 cells; conditions: 30 ng/mL human IL-17A protein, 48 h, GROα in supernatant by ELISA kit, read-out: Inhibitory IC50 of compounds on HT-29 cell GROα/CXCL1
# Outline: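 Compound dilutions were preincubated 1 h at 37 °C with 30 ng/mL human IL-17A, then added to HT-29 cells (5×10^4/well) for 48 h at 37 °C. GROα in supernatant quantified by ELISA; IC50 for inhibition of its production. Positive control: IL-17A antibody at […].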
SMILES,IC50 (Human IL-17A [1]),IC50 (Human IL-17A [2])
Cc1[nH]nc2c1-c1cc(F)c(NC(=O)[C@@H](NC(=O)c3ccnn3C(C)C)C(C3CC3)C3CC3)cc1CN(CC(C)(F)F)C(=O)C2 [compound 148],≤ 0.05 µM,≤ 0.1 µM
CCn1nccc1C(=O)N[C@H](C(=O)Nc1cc2c(cc1F)-c1c(n[nH]c1C)CC(=O)N(CC(C)(F)F)C2)C(C1CC1)C1CC1 [compound 149],≤ 0.05 µM,≤ 0.1 µM
Cc1[nH]nc2c1-c1cc(F)c(NC(=O)[C@@H](NC(=O)c3ccnn3C(C)C)C(C3CC3)C3CC3)cc1CN(C(C)C)C(=O)C2 [compound 150],≤ 0.05 µM,≤ 0.1 µM
CCn1nccc1C(=O)N[C@H](C(=O)Nc1cc2c(cc1F)-c1c(n[nH]c1C)CC(=O)N(C(C)C)C2)C(C1CC1)C1CC1 [compound 151],≤ 0.05 µM,≤ 0.1 µM
Cc1[nH]nc2c1-c1cc(F)c(NC(=O)[C@@H](NC(=O)c3ccnn3C(C)C)C(C3CC3)C3CC3)cc1CN(CC(F)(F)F)C(=O)C2 [compound 152],≤ 0.05 µM,≤ 0.1 µM
Cc1[nH]nc2c1-c1cc(F)c(NC(=O)[C@@H](NC(=O)c3ccnn3C(C)C)C(C3CC3)C3CC3)cc1CN(CC1CC1)C(=O)C2 [compound 153],≤ 0.05 µM,≤ 0.1 µM
CCN1CCc2n[nH]c(C)c2-c2cc(F)c(NC(=O)[C@@H](NC(=O)c3ccnn3C(C)C)C(C3CC3)C3CC3)cc2C1 [compound 156],≤ 0.05 µM,0.1 to 0.5 µM
Cc1[nH]nc2c1-c1cc(F)c(NC(=O)[C@@H](NC(=O)c3ccnn3C(C)C)C(C3CC3)C3CC3)cc1CN(CC(F)F)CC2 [compound 158],≤ 0.05 µM,≤ 0.1 µM
CCn1nccc1C(=O)N[C@H](C(=O)Nc1cc2c(cc1F)-c1c(n[nH]c1C)CCN(CC(F)F)C2)C(C1CC1)C1CC1 [compound 159],≤ 0.05 µM,≤ 0.1 µM
Cc1[nH]nc2c1-c1cc(F)c(NC(=O)[C@@H](NC(=O)c3ccnn3C(C)C)C(C3CC3)C3CC3)cc1CN(CC(C)(F)F)CC2 [compound 160],≤ 0.05 µM,≤ 0.1 µM
CCn1nccc1C(=O)N[C@H](C(=O)Nc1cc2c(cc1F)-c1c(n[nH]c1C)CCN(CC(C)(F)F)C2)C(C1CC1)C1CC1 [compound 161],≤ 0.05 µM,≤ 0.1 µM
Cc1[nH]nc2c1-c1cc(F)c(NC(=O)[C@@H](NC(=O)c3ccnn3C(C)C)C(C3CC3)C3CC3)cc1CN(CC(F)(F)F)CC2 [compound 164],≤ 0.05 µM,≤ 0.1 µM
Cc1[nH]nc2c1-c1cc(F)c(NC(=O)[C@@H](NC(=O)c3ccnn3C(C)C)C(C3CC3)C3CC3)cc1CN(C1CC1)CC2 [compound 165],≤ 0.05 µM,≤ 0.1 µM

# Next, values leading:
IC50 (Human IL-17A [1]),IC50 (Human IL-17A [2]),SMILES
≤ 0.05 µM,≤ 0.1 µM,CCn1nccc1C(=O)N[C@H](C(=O)Nc1ccc2c(c1)COCCc1n[nH]c(C)c1-2)C(C1CC1)C1CC1 [compound 3]
≤ 0.05 µM,0.1 to 0.5 µM,Cc1[nH]nc2c1-c1ccc(NC(=O)[C@@H](NC(=O)c3ccnn3C3CC3)C(C3CC3)C3CC3)cc1COCC2 [compound 6]
≤ 0.05 µM,≤ 0.1 µM,Cc1[nH]nc2c1-c1cnc(NC(=O)[C@@H](NC(=O)c3ccnn3C[C@@H]3C[C@H]3F)C(C3CC3)C3CC3)cc1COCC2 [compound 125]
≤ 0.05 µM,≤ 0.1 µM,Cc1[nH]nc2c1-c1cc(F)c(NC(=O)[C@@H](NC(=O)c3ccnn3C(C)C)C(C3CC3)C3CC3)cc1CN(C)C(=O)C2 [compound 132]
≤ 0.05 µM,0.1 to 0.5 µM,CCn1nccc1C(=O)N[C@H](C(=O)Nc1cc2c(cc1F)-c1c(n[nH]c1C)CC(=O)N(C)C2)C(C1CC1)C1CC1 [compound 133]
≤ 0.05 µM,≤ 0.1 µM,Cc1[nH]nc2c1-c1cc(F)c(NC(=O)[C@@H](NC(=O)c3ccnn3C(C)C)C(C3CC3)C3CC3)cc1CN(C1CC1)C(=O)C2 [compound 136]
≤ 0.05 µM,≤ 0.1 µM,CCN1Cc2cc(NC(=O)[C@@H](NC(=O)c3ccnn3C(C)C)C(C3CC3)C3CC3)c(F)cc2-c2c(n[nH]c2C)CC1=O [compound 142]
≤ 0.05 µM,≤ 0.1 µM,CCN1Cc2cc(NC(=O)[C@@H](NC(=O)c3ccnn3CC)C(C3CC3)C3CC3)c(F)cc2-c2c(n[nH]c2C)CC1=O [compound 143]
≤ 0.05 µM,≤ 0.1 µM,Cc1[nH]nc2c1-c1cc(F)c(NC(=O)[C@@H](NC(=O)c3ccnn3C(C)C)C(C3CC3)C3CC3)cc1CN(CC(F)F)C(=O)C2 [compound 144]
≤ 0.05 µM,≤ 0.1 µM,CCn1nccc1C(=O)N[C@H](C(=O)Nc1cc2c(cc1F)-c1c(n[nH]c1C)CC(=O)N(CC(F)F)C2)C(C1CC1)C1CC1 [compound 145]
